This passage reports pest or weed control results from patent US8895568B2, “Compositions comprising substituted pteridines as agrochemicals” (Dow AgroSciences LLC, priority 2009, dated 2014).

Type in all cases: in vivo
In one assay the test system is Colletotricum lagenarium. Description: Cucumber Anthracnose (COLLLA), foliar spray, percent disease control. The procedure:
The activity of the compounds as effective fungicides was determined by applying the compounds to plants and observing control of fungal disease. The compounds were formulated at 200 ppm in 10 vol. % acetone plus 90 vol. % Triton X water (deionized water 99.99 wt %+0.01 wt % Triton X100), giving a “formulated test compound.” In a few cases, compounds were formulated at 75 or 8.3 ppm rather than 200 ppm in 10 vol. % acetone plus 90 vol. % Triton X water (deionized water 99.99 wt. %+0.01 wt. % Triton X100), giving a “formulated test compound.” Formulated test compounds were applied to plants using a turn table sprayer fitted with two opposing air atomization nozzles which delivered approximately 1500 L/ha of spray volume. All plants were inoculated with spores of the fungus the day after treatment, then incubated in an environment conducive to disease development. Disease severity was evaluated 4 to 15 days later, depending on the disease and the speed of disease development. The following experiments were performed in the laboratory to determine the fungicidal efficacy of the compounds of the invention. Cucumber Anthracnose (causal agent Colletotricum lagenarium; Bayer code COLLLA): Cucumber plants (variety Bush Champion) were grown from seed in a soil-less peat-based potting mixture (Metromix) until the first true leaf was 20-80% expanded. Each pot contained 1 seedling. These plants were sprayed until wet with the formulated test compound. On the following day, the leaves were inoculated with an aqueous spore suspension of Colletotricum lagenarium and the plants were kept in high humidity for one day to permit spores to germinate and infect the leaf. The plants were then transferred to a growth chamber until disease developed on untreated control plants. […] The effectiveness of the test compounds at controlling disease when sprayed on leaves was determined by assessing the severity of disease on treated plants, then converting the severity to percent control based on the level of disease on untreated, inoculated plants. Data are the level (in percent) at which the given disease was controlled when the given compound was applied to the foliage of the plants at 200 ppm. In a few cases (noted in the table) the compound was applied to the plants at 75 ppm or 8.3 ppm.

Assay [1] deals with Pseudoperonospora cubensis. Description: Cucumber Downy Mildew (PSPECU), foliar spray, percent disease control. The settings on record: read-out: PSPECU percent control. The procedure:
The activity of the compounds as effective fungicides was determined by applying the compounds to plants and observing control of fungal disease. The compounds were formulated at 200 ppm in 10 vol. % acetone plus 90 vol. % Triton X water (deionized water 99.99 wt %+0.01 wt % Triton X100), giving a “formulated test compound.” In a few cases, compounds were formulated at 75 or 8.3 ppm rather than 200 ppm in 10 vol. % acetone plus 90 vol. % Triton X water (deionized water 99.99 wt. %+0.01 wt. % Triton X100), giving a “formulated test compound.” Formulated test compounds were applied to plants using a turn table sprayer fitted with two opposing air atomization nozzles which delivered approximately 1500 L/ha of spray volume. All plants were inoculated with spores of the fungus the day after treatment, then incubated in an environment conducive to disease development. Disease severity was evaluated 4 to 15 days later, depending on the disease and the speed of disease development. The following experiments were performed in the laboratory to determine the fungicidal efficacy of the compounds of the invention. Cucumber Downy Mildew (causal agent Pseudoperonospora cubensis; Bayer code […]): Cucumber plants (variety Bush Champion) were grown from seed in a soil-less peat-based potting mixture (Metromix) until the first true leaf was 20-80% expanded. Each pot contained 1 seedling. These plants were sprayed until wet with the formulated test compound. On the following day, the leaves were inoculated with an aqueous suspension of downy mildew sporangia and the plants were kept in high humidity for one day to permit sporangia to germinate and infect the leaf. The plants were then incubated in a growth chamber until disease developed on untreated control plants. […] The effectiveness of the test compounds at controlling disease when sprayed on leaves was determined by assessing the severity of disease on treated plants, then converting the severity to percent control based on the level of disease on untreated, inoculated plants. Data are the level (in percent) at which the given disease was controlled when the given compound was applied to the foliage of the plants at 200 ppm. In a few cases (noted in the table) the compound was applied to the plants at 75 ppm or 8.3 ppm.

The next assay relates to Cochliobolus sativus. Description: Spot Blotch of Wheat (COCHSA), foliar spray, percent disease control. The note with it: Bipolaris sorokiniana, read-out: COCHSA percent control.

Where two headings read alike, the source gives them in different places.

For the molecule `CCOc1cc(CCNc2ncnc3nccnc23)ccc1Oc1cc(C(C)C)ccn1` [Compound 205], the values for the pest or weed control at 200 µg/mL (with Colletotricum lagenarium (foliar spray); in assay [1] (foliar spray); in the assay on Cochliobolus sativus (foliar spray)) were 0 to 49%, 80 to 100% and 0 to 49%, respectively.
As for `COc1cc(C(C)(F)F)cc(Oc2ccc(CCNc3ncnc4nccnc34)cc2)n1` [Compound 191, (2-{4-[4-(1,1-Difluoroethyl)-6-methoxypyridin-2-yloxy]-phenyl}-ethyl)-pteridin-4-yl-amine], the pest or weed control at 200 µg/mL fell in the range of 50 to 79% in the assay with Colletotricum lagenarium (foliar), 80 to 100% in assay [1] (foliar) and 0 to 49% in the assay with Cochliobolus sativus (foliar).
For `COc1cc(CCNc2ncnc3nccnc23)ccc1Oc1cc(C#N)ccn1` [Compound 57], in that order: 0 to 49%, 80 to 100% and 0 to 49%.
For `Fc1ccc(-c2ccc(CCNc3ncnc4nccnc34)cc2)cn1` [Compound 121, {2-[4-(6-Fluoropyridin-3-yl)-phenyl]-ethyl}-pteridin-4-yl-amine], in that order: 0 to 49%, 80 to 100% and 0 to 49%.
For `FC(F)(F)c1cccnc1Oc1ccc(OCCNc2ncnc3nccnc23)cc1` [Compound 160], in that order: 0 to 49%, 80 to 100% and 0 to 49%.
On to `CC(C)(C)OC(=O)N(CCc1ccc(O)cc1)c1ncnc2nccnc12` [Compound 217, [2-(4-Hydroxyphenyl)-ethyl]-pteridin-4-yl-carbamic acid tert-butyl Ester], for which the pest or weed control at 200 µg/mL is 0 to 49% with Colletotricum lagenarium (foliar spray), 50 to 79% in assay [1] (foliar spray) and 50 to 79% with Cochliobolus sativus (foliar spray).
On to `FC(F)(F)c1ccc(Oc2cccc(CCNc3ncnc4nccnc34)c2)nc1` [Compound 47], for which the figures for the pest or weed control at 200 µg/mL (in the assay on Colletotricum lagenarium (foliar); in assay [1] (foliar); in the assay with Cochliobolus sativus (foliar)) were 50 to 79%, 80 to 100% and 0 to 49%, respectively.
For `COc1ccc(CCNc2ncnc3nccnc23)cc1F` [Compound 176], in that order: 0 to 49%, 0 to 49% and 0 to 49%.
With `Cc1nc(NCCc2ccc(O)cc2)c2nc(C)c(C)nc2n1` [Compound 209], the pest or weed control at 200 µg/mL (in the assay with Colletotricum lagenarium (foliar spray); in assay [1] (foliar spray); with Cochliobolus sativus (foliar spray)) was 0 to 49% in each case.
Turning to `c1cc(-c2nnc(Oc3ccc(CCNc4ncnc5nccnc45)cc3)s2)ccn1` [Compound 23], the pest or weed control at 200 µg/mL (with Colletotricum lagenarium (foliar); in assay [1] (foliar); with Cochliobolus sativus (foliar)) was 0 to 49% each time.
For `FC(F)(F)c1ccc(Oc2cccc(OCCNc3ncnc4nccnc34)c2)nc1` [Compound 87], the pest or weed control at 200 µg/mL in the assay with Colletotricum lagenarium (foliar) is 0 to 49%; in assay [1] (foliar), 80 to 100%; in the assay with Cochliobolus sativus (foliar), 0 to 49%.
In the case of `FC(F)(F)c1ccnc(Oc2cccc(OCCNc3ncnc4nccnc34)c2)c1` [Compound 86], the pest or weed control at 200 µg/mL with Colletotricum lagenarium (foliar) is 0 to 49%; in assay [1] (foliar) it was 80 to 100%; in the assay on Cochliobolus sativus (foliar), 0 to 49%.
`Cc1cc(CCNc2ncnc3nccnc23)ccc1O` [Compound 174]: the pest or weed control at 200 µg/mL (in the assay with Colletotricum lagenarium (foliar); in assay [1] (foliar); in the assay on Cochliobolus sativus (foliar)) was 0 to 49% each time.
`CCOc1cc(CCNc2ncnc3nccnc23)ccc1Oc1cc(C(C)(F)F)ccn1` [Compound 189]: the pest or weed control at 200 µg/mL in the assay on Colletotricum lagenarium (foliar) lay in the range of 50 to 79%; in assay [1] (foliar), 80 to 100%; in the assay on Cochliobolus sativus (foliar), 0 to 49%.
For `Fc1cnc(C(F)(F)F)c(F)c1Oc1ccc(CCNc2ncnc3nccnc23)cc1` [Compound 72], in that order: 50 to 79%, 80 to 100% and 0 to 49%.
As for `N#Cc1nccnc1Oc1ccc(CCNc2ncnc3nccnc23)cc1` [Compound 18], the pest or weed control at 200 µg/mL with Colletotricum lagenarium (foliar) fell in the range of 0 to 49%; in assay [1] (foliar), 80 to 100%; in the assay with Cochliobolus sativus (foliar) it was 0 to 49%.
`Cc1nc2ncnc(NCCc3ccc(O)cc3)c2nc1C` [Compound 161]: the pest or weed control at 200 µg/mL (with Colletotricum lagenarium (foliar); in assay [1] (foliar); with Cochliobolus sativus (foliar)) was 0 to 49% in each case.
`N#Cc1ccnc(Oc2cccc(OCCNc3ncnc4nccnc34)c2)c1` [Compound 88]: the pest or weed control at 200 µg/mL in the assay on Colletotricum lagenarium (foliar) fell in the range of 0 to 49%; in assay [1] (foliar), 80 to 100%; in the assay on Cochliobolus sativus (foliar), 0 to 49%.
For `N#Cc1c(Cl)cncc1Oc1ccc(CCNc2ncnc3nccnc23)cc1` [Compound 35], the pest or weed control at 200 µg/mL lay within 0 to 49% with Colletotricum lagenarium (foliar), 80 to 100% in assay [1] (foliar) and 0 to 49% with Cochliobolus sativus (foliar).
`Fc1cccc(Oc2ccc(OCCNc3ncnc4nccnc34)cc2)n1` [Compound 159]: the pest or weed control at 200 µg/mL is 0 to 49% in the assay on Colletotricum lagenarium (foliar), 80 to 100% in assay [1] (foliar) and 0 to 49% in the assay with Cochliobolus sativus (foliar).
Take `COc1cc(C(F)(F)F)cc(Oc2ccc(CCNc3ncnc4nccnc34)cc2F)n1` [Compound 185]: the values for the pest or weed control at 200 µg/mL (in the assay with Colletotricum lagenarium (foliar); in assay [1] (foliar); with Cochliobolus sativus (foliar)) were 0 to 49%, 80 to 100% and 0 to 49%, respectively.
In the case of `FC(F)(F)c1ccnc(Oc2cccc(CCNc3ncnc4nccnc34)c2)c1` [Compound 46], the pest or weed control at 200 µg/mL in the assay on Colletotricum lagenarium (foliar) fell in the range of 80 to 100%; in assay [1] (foliar), 80 to 100%; in the assay on Cochliobolus sativus (foliar), 0 to 49%.
As for `N#Cc1ccnc(Oc2ccc(OCCNc3ncnc4nccnc34)cc2)c1` [Compound 85], the figures for the pest or weed control at 200 µg/mL (with Colletotricum lagenarium (foliar); in assay [1] (foliar); in the assay with Cochliobolus sativus (foliar)) were 0 to 49%, 80 to 100% and 0 to 49%, respectively.
As to `Cc1cnc2ncnc(NCCc3ccc(O)cc3)c2n1` [Compound 38], the pest or weed control at 200 µg/mL (in the assay on Colletotricum lagenarium (foliar); in assay [1] (foliar); with Cochliobolus sativus (foliar)) was 0 to 49% throughout.
As to `Ic1ccnc(Oc2cccc(CCNc3ncnc4nccnc34)c2)c1` [Compound 74], the pest or weed control at 200 µg/mL lay in the range of 0 to 49% in the assay with Colletotricum lagenarium (foliar), 80 to 100% in assay [1] (foliar) and 0 to 49% in the assay with Cochliobolus sativus (foliar).
For `FC(F)(F)c1cc(Oc2ccc(CCNc3ncnc4nccnc34)cc2)nc(C(F)(F)F)c1` [Compound 115], the pest or weed control at 200 µg/mL lay in the range of 0 to 49% in the assay on Colletotricum lagenarium (foliar), 80 to 100% in assay [1] (foliar) and 0 to 49% in the assay on Cochliobolus sativus (foliar).
In the case of `c1ccc(COc2ccc(CCNc3ncnc4nccnc34)cc2)cc1` [Compound 1, [2-(4-Benzyloxyphenyl)-ethyl]-pteridin-4-yl-amine], the pest or weed control at 200 µg/mL in the assay on Colletotricum lagenarium (foliar) fell in the range of 80 to 100%; in assay [1] (foliar) it was 80 to 100%; with Cochliobolus sativus (foliar) it was 50 to 79%.
Regarding `Oc1cccc(CCNc2ncnc3nccnc23)c1` [Compound 20], the pest or weed control at 200 µg/mL (in the assay with Colletotricum lagenarium (foliar); in assay [1] (foliar); in the assay with Cochliobolus sativus (foliar)) was 0 to 49% each time.
As for `COc1ccc(CCNc2ncnc3nccnc23)c(F)c1` [Compound 62], the pest or weed control at 200 µg/mL in the assay on Colletotricum lagenarium (foliar) lay in the range of 0 to 49%; in assay [1] (foliar), 80 to 100%; in the assay on Cochliobolus sativus (foliar), 0 to 49%.
